According to patent US12070457B2, “Substituted pyridines, pyridazines, pyrimidines, and 1,2,3-triazines as bruton's tyrosine kinase inhibitors” (HUTCHISON MEDIPHARMA LIMITED, priority 2020, dated 2024):

Key:
[1] = biological target: phosphorylated BTK in Ramos cells (Homo sapiens (Human), UniProt Q06187); test: Determination of phosphorylated BTK in Ramos cells (BTK phospho-Y223 HTRF); assay type: cell-based
Experimental: Determination of Phosphorylated BTK in Ramos Cells
(§1) 1. Reagents and Materials
• Ramos cells: Ramos cells were purchased from American Standard Biological Collection Center ATCC Cell Bank, PRMI 1640 medium containing L-glutamine, 1.5 g/L of sodium bicarbonate, 2.383 g/L of HEPES solution, 0.11 g/L of sodium pyruvate and 4.5 g/L of glucose was used, added 10% fetal bovine serum FBS, and placed in a 5% C02, 37° C. cell incubator for normal culture; • PRMI 1640 medium: GIBCO, Cat #A10491-01; • Fetal bovine serum (FBS): GIBCO, Cat #100100-147; • Hank's balanced salt solution (HBSS): GIBCO, Cat #14025-092; • Immunoglobulin M (IgM): Jackson Immuno, Cat #109-006-129; • 3% hydrogen peroxide (3% H2O2): Sigma, Cat #88597-100 ML-F; • Phosphorylated BTK HTRF detection kit (BTK phospho-Y223 HTRF kit): Cisbio, Cat #63ADK017PEH; • Microwell plate reader: Envision, Perkin Elmer; • 384-well plate CulturPlate™384: Perkin Elmer, Cat #6007680 • 96-well plate: Corning, Cat #3799. 2. Methods
Ramos cells were starved in PRMI 1640 medium with 1% FBS for 2 hours. The starved Ramos cells were diluted with Hank's balanced salt solution to 5.0×10^6 cells/ml, seeded in a 96-well plate with 20 μL/well (1.0×10^5 cells/well), and cultured in a 5% CO2, 37° C. cell incubator. […]
The 384 well plate incubated overnight in the constant temperature incubator was taken out to detect the luminescence signal using the Envision microwell plate reader at the […]. The reading value at 665 nm/615 nm of each well multiplied by 104 was used as the signal value of each well.
The average signal value of the wells supplemented with the mixed solution of human immunoglobulin M (final concentration was 10 μg/mL) and hydrogen peroxide (final concentration was 3.3 mM) without the test compound was regarded as the high value, and the average signal value of the wells without immunoglobulin M stimulation and without the test compound was regarded as the low value. According to the signal value in each well, the inhibition ratio (%) of each concentration of compounds was calculated, and the 205 model in XL-Fit 5.3 software (ID Business Solutions Limited) was used to obtain an IC50 value. […]

BTK recombinant protein = BTK recombinant protein (Homo sapiens (Human), UniProt Q06187); test: Determination of biochemical BTK (Z'-LYTE kinase assay)
Source text: Example 2 Determination of Biochemical BTK
as §1
• BTK recombinant protein: Invitrogen, Cat #PV3363; • Z′-LYTE® kinase test kit-tyrosine 1 peptide: Invitrogen, Cat #PV3190; • 384-well low-flange black flat-bottomed polystyrene NBS microplate, no lid, no sterilization: Corning, Cat #3575; • 96-well polystyrene conical-bottomed MicroWell™ plate, sealed with a lid: Thermo Scientific™ Nunc™, Cat #277143; • Envision multi-mode plate reader: PerkinElmer; • Mixmate® shaker: Eppendorf; • TS-2102 shaking incubator: TENSUC; 2. Methods
Z′-LYTE® biochemical assay employs a fluorescence resonance energy transfer (FRET)-based, coupled-enzyme format and is based on the differential sensitivity of phosphorylated and non-phosphorylated peptides to proteolytic cleavage. Both ends of the short peptide substrate are labeled with two fluorescent groups to form a FRET paired combination. In the primary reaction (the Kinase Reaction), the kinase transfers the γ-phosphate of ATP to a single […] residue on the short peptide substrate. In the secondary reaction (the development reaction), the non-phosphorylated short peptides were recognized and cleaved by a site-specific protease (the development reagent). Phosphorylated short peptides can resist such cleavage. Cleavage of short peptides can disrupt the donor (such as coumarin) and receptor fluorophores (fluorescein) on the short peptides, while the phosphorylated short peptides can maintain FRET. The calculation method of the ratio is as follows, and the ratio of the respective emission signals generated by the donor fluorophores emitted (after excitation at 400 nm) to the receptors is calculated. Emission signal ratio=emitted light by coumarin (445 nm)/emitted light by fluorescein (520 nm). If the FRET short peptide is phosphorylated (such as no kinase inhibitor), the emitted light ratio will remain in a lower level. If the FRET short peptide is non-phosphorylated (such as kinase inhibitor), the emitted light ratio will be in a higher level. In this way, the inhibitory effects of different compound inhibitors on BTK kinase activity would be distinguished.
The experiment were carried out according to the instructions of the Z′-LYTE® kinase test kit-tyrosine 1 peptide. Reagent preparation: 1.33× kinase buffer: 5× kinase buffer was diluted with water to 1.33× kinase buffer; an enzyme solution: the kinase was dissolved in 1.33× kinase buffer with the final working concentration being 3.32 nM; a short peptide solution: a short peptide stock solution (1 mM dissolved in DMSO) was dissolved in 1.33× kinase buffer with the final working concentration being 2 μM; Z′-LYTE Tyr01 phosphorylated short peptide solution, 0.6 μl of stock solution (1 mM dissolved in DMSO) was dissolved in 149.4 μl of 1.33× kinase buffer; an ATP solution: an ATP stock solution (10 mM aqueous solution) was dissolved in 1.33× kinase buffer with the final working concentration being 32 μM; a color-developing solution: color-developing solution B was dissolved in color-developing buffer with the final working concentration being 1× color-developing solution; 4× compound preparation: the compound was diluted in 3-fold gradient concentration to finally obtain 4% DMSO aqueous solution containing different concentrations of the compound, with the final working concentration being 3000, 1000, 333.33, 111.11, 37.04, 12.35, 4.12, 1.37 nM, 8 concentration points in total.
Specific steps of the experiment: In the experiment, there were three control groups, each with 8 replicate wells, which were C1 100% inhibition group (no ATP), C2 0% inhibition group (with ATP), and C3 100% phosphorylation group, respectively. 2.5 μl of serially diluted compound was added to each well of a 384-well plate, with double replicate wells, and 4% DMSO solution was added to wells C1, C2, and C3. […]

[2] = Stability test in liver microsomes (mouse); assay type: in vitro ADME; settings: 1 μM compound; for stability in mouse liver microsomes compared with reference GDC-0853: 0.5 mg/mL liver microsomes, 30 minutes incubation; for MLM, percentage of remaining compound after 30 minutes of incubation: mouse liver microsomes
Source text: (§2) Example 5 Stability Test in Liver Microsomes
(§3) Both male CD-1 mouse pooled liver microsomes and male SD rat pooled liver microsomes were purchased from BioreclamationIVT Corporation, USA.
(§4) Phenacetin, glucose-6-phosphate dehydrogenase (G-6-PDH) and nicotinamide adenine dinucleotide phosphate (NADP) were all purchased from Sigma-Aldrich Corporation, USA. Glucose-6-phosphate (G-6-P) was purchased from Shanghai Eybridge Chemical Technology Co., Ltd.
(§5) Ten mM test compound stock solution: a certain amount of test compound was weighed, and dissolved with an appropriate volume of DMSO to prepare a stock solution with a concentration of 10 mM for use.
(§6) Reaction stopping solution: an appropriate amount of internal standard compound phenacetin was dissolved in acetonitrile to prepare a reaction stopping solution with a concentration of 1000 ng/mL for use at room temperature.
(§7) The test compound stock solution was diluted with an organic solvent (usually a mixture of acetonitrile, methanol and water with various ratios, depending on the solubility of the compound, if necessary, 1 N hydrochloric acid or 1 N sodium hydroxide would be added to facilitate solubilization) to the 0.1 mM (the final concentration of the compound in the reaction system was 1 μM) and the concentration percentage of the organic solvents in the incubation system no more than 1% (wherein the percentage of DMSO was required to be no more than 0.1%). An appropriate amount of 100 mM NADP, 500 mM G-6-P and 100 Unit/mL G-6-PDH were mixed and diluted with ultrapure water (the final system contains 1 mM NADP, 5 mM G-6-P and 1 Unit/mL G-6-PDH), pre-incubated in a 37° C. water bath for 10 minutes and then placed on ice for use as a NADPH regeneration solution. 20 mg/mL liver microsomes solution and 200 mM phosphate buffer was mixed, and diluted with ultrapure water to give a liver microsomes solution containing 2.5 mg/mL liver microsomes (the final concentration of the reaction system is 0.5 mg/mL) and 50 mM phosphate buffer. The diluted liver microsomes solution was mixed with 0.1 mM compound solution, a mixture of 100 mM EDTA, 300 mM MgCl2 solution, 200 mM phosphate buffer (the final system was 3 mM MgCl2, 1 mM EDTA and 50 mM phosphate buffer) and water in an appropriate volume was added. Finally, the NADPH regeneration solution was added, then the reaction solution was placed in a 37° C. water bath to start the reaction (the reaction time was 30 minutes), and the reaction was stopped by adding the ice-cold acetonitrile reaction stopping solution containing the internal standard. The 0-minute sample was not incubated in a 37° C. water bath, and its difference from the 30-minute sample further lies in that the ice-cold acetonitrile reaction stopping solution containing the internal standard was added first, and then the NADPH regeneration solution was added. The sample added with the reaction stopping internal standard solution was vortexed and mixed well, and then centrifuged at 4400 rpm for 10 minutes. The supernatant was taken and diluted ten times with 50% methanol for LC-MS/MS analysis.
(§8) LC-MS/MS was used to determine the concentration of the compound in the sample. The percentage of the remaining compound after 30 minutes of incubation comparing with that in the 0-minute sample was calculated using the peak area ratio of the compound to the internal standard as an indicator, to evaluate the metabolic stability of the compound.
(§9) Instrument: API4500, API4000 or LTQ Mass Spectrometer; the liquid phase is UHPLC system (Shimadzu LC-30 AD, model Nexra X2) including liquid delivery unit, column thermostat, detector and autosampler; or Agilent 1200 Binary Pump series HPLC and CTC Autosampler.
(§10) Chromatographic column: Waters XSELECT Hss T3 C18 (2.5 μm, 2.1×50 mm) or […] (5 μm, 2.0×50 mm)
(§11) Mobile phase: • A: water with 0.1% FA (formic acid) (with or without 0.1% ACN (acetonitrile)) • B: acetonitrile with 0.1% FA (formic acid).

[3] = Stability test in liver microsomes (rat); assay type: in vitro ADME; settings: 1 μM compound; for stability in rat liver microsomes compared with reference GDC-0853: 0.5 mg/mL liver microsomes, 30 minutes incubation; for RLM, percentage of remaining compound after 30 minutes of incubation: rat liver microsomes
Source text: as §2, §3, §4, §5, §6, §7, §8, §9, §10, §11

Sequence of BTK recombinant protein (Q06187 whole entry): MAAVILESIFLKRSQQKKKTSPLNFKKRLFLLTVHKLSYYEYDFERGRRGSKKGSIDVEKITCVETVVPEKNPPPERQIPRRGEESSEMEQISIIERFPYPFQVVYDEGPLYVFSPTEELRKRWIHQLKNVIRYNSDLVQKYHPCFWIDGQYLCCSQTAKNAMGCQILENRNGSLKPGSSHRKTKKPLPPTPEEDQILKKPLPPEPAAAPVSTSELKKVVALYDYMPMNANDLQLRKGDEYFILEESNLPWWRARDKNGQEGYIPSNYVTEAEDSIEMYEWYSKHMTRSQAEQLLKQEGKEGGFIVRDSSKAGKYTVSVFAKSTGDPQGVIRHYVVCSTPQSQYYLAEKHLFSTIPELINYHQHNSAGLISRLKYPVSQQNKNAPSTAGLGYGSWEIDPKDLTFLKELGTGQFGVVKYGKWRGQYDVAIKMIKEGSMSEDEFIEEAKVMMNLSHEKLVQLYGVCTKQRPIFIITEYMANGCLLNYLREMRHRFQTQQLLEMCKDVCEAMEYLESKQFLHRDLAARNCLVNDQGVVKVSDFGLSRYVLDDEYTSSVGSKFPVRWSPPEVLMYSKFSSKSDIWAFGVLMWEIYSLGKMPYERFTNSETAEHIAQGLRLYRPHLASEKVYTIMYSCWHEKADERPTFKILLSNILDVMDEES
Sequence of phosphorylated BTK in Ramos cells (Q06187 whole entry): as above

IC50 [1]	IC50 (BTK recombinant protein)	MLM, percentage of remaining compound after 30 minutes of incubation [2]	RLM, percentage of remaining compound after 30 minutes of incubation [3]	Compound	stability in mouse liver microsomes compared with reference GDC-0853 [2]	stability in rat liver microsomes compared with reference GDC-0853 [3]
5 nM	8 nM			2-(3′-(hydroxymethyl)-5-((5-(2-methoxyethyl)-4-methyl-4,5,6,7-tetrahydropyrazolo[1,5-α]pyrazin-2-yl)amido)-1-methyl-6-oxo-1,6-dihydro-[3,4′-bispyridin]-2′-yl)-7,7-dimethyl-7,8-dihydro-2H-cyclopenta[4,5]pyrrolo[1,2-d][1,2,4]triazin-1(6H)-one optically pure enantiomer [Compound 120]		
38 nM	18 nM			CC1c2cc(Nc3cc(-c4ccnc(-n5ccn6c7c(cc6c5=O)CCC7)c4CO)cn(C)c3=O)nn2CCN1C1COC1 (racemic) [Compound 144]		
16 nM	33 nM			COCCN1CCn2nc(Nc3cc(-c4ccnc(-n5ccn6c7c(cc6c5=O)CCC7)c4CO)cn(C)c3=O)cc2C1C (racemic) [Compound 145]		
	27 nM			C[C@H]1CN(C2COC2)CCN1c1ccc(Nc2nc(-c3ccnc(-n4ccn5c6c(cc5c4=O)CC(C)(C)C6)c3CO)cn(C)c2=O)nc1 [Compound 20]		
	10 nM	83.4%	95.6%	C[C@H]1CN(C2COC2)CCN1c1ccc(Nc2cc(-c3ccnc(-n4ccn5c6c(cc5c4=O)CC(C)(C)C6)c3CO)nn(C)c2=O)nc1 [Compound 22]	better than that of the reference GDC-0853	better than that of the reference GDC-0853
	3 nM			CCn1cc(Nc2cc(-c3ccnc(-n4ccn5c6c(cc5c4=O)CC(C)(C)C6)c3CO)cn(C)c2=O)nn1 [Compound 24]		
	8 nM			CCn1cc(Nc2cc(-c3ccnc(-n4ccn5c6c(cc5c4=O)CC(C)(C)C6)c3CO)nn(C)c2=O)nn1 [Compound 25]		
	5 nM	89.5%	~100%	Cn1cc(-c2ccnc(-n3ccn4c5c(cc4c3=O)CC(C)(C)C5)c2CO)cc(Nc2ccc(N3CCN(C4COC4)CC3=O)cn2)c1=O [Compound 34]	better than that of the reference GDC-0853	better than that of the reference GDC-0853

Compound	IC50 [1]	IC50 (BTK recombinant protein)	MLM, percentage of remaining compound after 30 minutes of incubation [2]	RLM, percentage of remaining compound after 30 minutes of incubation [3]	stability in mouse liver microsomes compared with reference GDC-0853 [2]	stability in rat liver microsomes compared with reference GDC-0853 [3]
COCC(C)n1cc(Nc2nc(-c3ccnc(-n4ccn5c6c(cc5c4=O)CC(C)(C)C6)c3CO)cn(C)c2=O)nn1 (centres unmarked) [Compound 42]		269 nM				
